Results on four compounds are retold here after patent US6680373B2, “P2U2 receptor antibodies” (Millennium Pharmaceuticals, Inc., priority 1995, dated 2004).

This test has as its target T1, P2U2 receptor (Homo sapiens, UniProt Q9BXA5).
T1 construct: The native human receptor was produced in oocytes by cloning the 500 bp 5′ truncation of the full-length kidney cDNA clone; expressed in transfected cells; host or cells: Xenopus laevis oocytes injected with capped in vitro transcribed RNA (pcDNA3 template, T7 polymerase)
T1 sequence (Q9BXA5 1-334): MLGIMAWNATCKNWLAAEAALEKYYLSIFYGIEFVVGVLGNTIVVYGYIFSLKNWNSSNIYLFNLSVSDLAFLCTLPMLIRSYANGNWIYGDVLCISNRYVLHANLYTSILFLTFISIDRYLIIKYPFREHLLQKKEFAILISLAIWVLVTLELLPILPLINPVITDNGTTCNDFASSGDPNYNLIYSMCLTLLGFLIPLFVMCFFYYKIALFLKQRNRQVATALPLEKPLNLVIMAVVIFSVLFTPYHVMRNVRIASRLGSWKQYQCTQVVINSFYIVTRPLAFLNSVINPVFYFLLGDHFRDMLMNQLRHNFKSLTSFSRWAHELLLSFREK
The experiment in a line: Two-electrode voltage clamp of agonist-induced chloride currents in Xenopus oocytes injected with P2U2 receptor cRNA. The test is classed as cell-based. Conditions: receptor expressed in Xenopus oocytes; for order of specificity as agonists of the P2U2 receptor: potencies close in value, a mere five-fold difference. The protocol: As indicated above, receptor activation can also be measured by means of the two-electrode voltage clamp assay. In this assay, agonist-induced inward chloride currents are measured in voltage-clamped oocytes that express the P2U2 receptor. The technique suitable for use in the instant invention is described by Julius, et al, Science 241:558-563 (1988). The native human receptor was produced in oocytes by cloning the 500 bp 5' truncation of the full-length kidney cDNA clone into the mammalian expression vector pcDNA3 (Invitrogen). Linearized DNA was used as a template for T7 polymerase (Ambion, Promega) for generation of capped in vitro transcribed mRNA following the suppliers specifications. Adult female Xenopus laevis were anesthetized in […] 3-aminobenzoic acid ethyl ester for 10 minutes and 1 or 2 ovarian lobes were removed, followed by immediate suturing of the incisions. Oocytes were defolliculated at room temperature with collagenase (2 mg/ml) in Ca^+2-free medium (OR-2) for 1-2 hr. Oocytes were stored at […] in ND-96 (96 mM sodium chloride, 2 mM potassium chloride, 1.8 mM calcium chloride, 1 mM magnesium chloride, 5 mM HEPES (N[2-hydroxyethylpiperazine-N'[2-ethanesulfonic acid) with penicillin/streptomycin and injected with 50 nl RNA (1-2 μg/μl) 18-24 h after removal of the oocytes. Before recording, injected oocytes were stored at 18° C. for 2-3 days with daily media changes. A two-electrode voltage clamp (Axon Axoclamp2B) was used to measure agonist-induced currents from individual oocytes. Electrodes were pulled to […] of 0.2-1 MΩ and filled with 3M KCl. Recordings were made at room temperature in ND96 from oocytes clamped at -70 mV using different agonist concentrations. Water-injected oocytes were used as a control.
(Two-electrode voltage clamp holds a large cell at a set potential and records current.)

Each structure is given as a SMILES string.

On to `Nc1ncnc2c1ncn2[C@@H]1O[C@H](COP(=O)(O)OP(=O)(O)O)[C@@H](O)[C@H]1O` [ADP], for which the “activation of the P2U2 receptor” value is reported as “activated” and the “order of specificity as agonists of the P2U2 receptor” value (from here on “order of specificity”) is on record as “UTP>UDP>ADP>ATP”.

`Nc1ncnc2c1ncn2[C@@H]1O[C@H](COP(=O)(O)OP(=O)(O)OP(=O)(O)O)[C@@H](O)[C@H]1O` [ATP]: the “activation of the P2U2 receptor” value is reported as “activated” and the “order of specificity” value is “UTP>UDP>ADP>ATP”.

Consider `O=c1ccn([C@@H]2O[C@H](COP(=O)(O)OP(=O)(O)O)[C@@H](O)[C@H]2O)c(=O)[nH]1` [UDP], for which the “activation of the P2U2 receptor” value is on record as “activated” and the “order of specificity” value is listed as “UTP>UDP>ADP>ATP”.

Regarding `O=c1ccn([C@@H]2O[C@H](COP(=O)(O)OP(=O)(O)OP(=O)(O)O)[C@@H](O)[C@H]2O)c(=O)[nH]1` [UTP], the “activation of the P2U2 receptor” value was “activated” and the “order of specificity” value is recorded as “UTP>UDP>ADP>ATP”.
